From PubChem BioAssay (NCI) come the findings set out here.

Some test systems named below: DMS 273 small cell lung; P388/ADR leukemia; SN12K1 renal; 786-0 renal; LXFL 529 NSCLC; RXF-631 renal.
Test in all cases: NCI tumour cell line growth inhibition, 48 h

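Briefly, cells in 96-well plates were exposed to five compound concentrations for 48 h, and endpoints were estimated by linear interpolation. TGI denotes the concentration required for complete inhibition of growth.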

Turning to `CCOC(=O)/C=C/c1c[nH]c(=O)[nH]c1=O`, the TGI in the assay with DMS 273 small cell lung, with P388/ADR leukemia and in the assay with SN12K1 renal was above 75 µM each time.
In turn, `CCCCCCC(=O)c1ccc2ccccc2c1O` displayed a TGI with 786-0 renal above 100 µM.
Regarding `CC(=O)OCc1nnn2c1CCC2`, in the assay on LXFL 529 NSCLC, the TGI was above 100 µM.
Consider `CCOC(=O)C1=C(C)N(C2OC(COC(C)=O)C(OC(C)=O)C(OC(C)=O)C2OC(C)=O)C(=O)NC1c1ccccc1` (centres undefined), for which the TGI in the assay with LXFL 529 NSCLC and in the assay on RXF-631 renal was above 100 µM throughout.
On to `COc1ccc(OCC(C)(C)O)cc1`, for which the TGI in the assay on DMS 273 small cell lung and in the assay on SN12K1 renal was above 100 µM in each case.
